# In patent US20070010671A1, “Novel quinazoline derivatives and methods of treatment related to the use thereof” (priority 2003, published 2007):
# Target: MCH receptor (Homo sapiens, UniProt Q99705)
# Experiment: High throughput functional screening FLIPR/FDSS6000: inhibition of MCH-evoked intracellular Ca2+ changes
# Assay type: cell-based
# Details: class by percent of control at 10^-7 M or by IC50; read-out: class
# In short: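 Seed cells the day before, then load them with Fluo4-AM for one hour at 37° C and wash in HEPES-buffered HBSS, pH 7.4. Add compound for 3 min, then stimulate with 50 nM MCH. Monitor the calcium transient for 290 s.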
row,Compound,IC50
1,"CN(C)c1nc(N[C@H]2CC[C@@H](NC(=O)Nc3ccc(Br)cc3C(F)(F)F)CC2)nc2ccccc12 [compound 141, N-[4-bromo-2-(trifluoromethyl)pheny]-N′-(cis-4-{[4-(dimethylamino)quinazolin-2-yl]amino}cyclohexyl)urea]",< 50 nM
2,"CN(C)c1nc(N[C@H]2CC[C@@H](NC(=O)Nc3c(F)cc(Br)cc3F)CC2)nc2ccccc12 [compound 142, N-(4-bromo-2,6-difluorophenyl)-N′-(cis-4-{[4-(dimethylamino)quinazolin-2-yl]amino}cyclohexyl)urea]",< 50 nM
3,CN(C)c1nc(N[C@H]2CC[C@@H](NC(=O)Nc3ccc(Br)cc3Cl)CC2)nc2ccccc12 [compound 143],> 200 nM
4,"CN(C)c1nc(N[C@H]2CC[C@@H](NC(=O)NCc3ccc(Br)cc3)CC2)nc2ccccc12 [compound 144, N-(4-bromobenzyl)-N′-(cis-4-{[4-(dimethylamino)quinazolin-2-yl]amino}cyclohexyl)urea]",< 50 nM
5,"CN(C)c1nc(N[C@H]2CC[C@@H](NC(=O)Nc3ccc(Cl)cc3C(F)(F)F)CC2)nc2ccccc12 [compound 145, N-[4-chloro-2-(trifluoromethyl)phenyl]-N′-(cis-4-{[4-(dimethylamino)quinazolin-2-yl]amino}cyclohexyl)urea]",< 50 nM
6,Cc1cc(Cl)ccc1NC(=O)N[C@H]1CC[C@@H](Nc2nc(N(C)C)c3ccccc3n2)CC1 [compound 146],< 50 nM
7,CN(C)c1nc(N[C@H]2CC[C@@H](NC(=O)Nc3ccc(Cl)cc3[N+](=O)[O-])CC2)nc2ccccc12 [compound 147],> 200 nM
8,CN(C)c1nc(N[C@H]2CC[C@@H](NC(=O)Nc3ccc(Cl)c(C(F)(F)F)c3)CC2)nc2ccccc12 [compound 148],> 200 nM
9,CN(C)c1nc(N[C@H]2CC[C@@H](NC(=O)Nc3ccccc3OC(F)(F)F)CC2)nc2ccccc12 [compound 152],> 200 nM
10,CN(C)c1nc(N[C@H]2CC[C@@H](NC(=S)Nc3cc(C(F)(F)F)cc(C(F)(F)F)c3)CC2)nc2ccccc12 [compound 155],> 200 nM
11,CN(C)c1nc(N[C@H]2CC[C@@H](NC(=S)NCc3ccccc3)CC2)nc2ccccc12 [compound 156],> 200 nM
12,CCCCNC(=S)N[C@H]1CC[C@@H](Nc2nc(N(C)C)c3ccccc3n2)CC1 [compound 159],> 200 nM
13,"CN(C)c1nc(N[C@H]2CC[C@@H](NC(=S)NC3CCCCC3)CC2)nc2ccccc12 [compound 161, N-cyclohexyl-N′-(cis-4-{[4-(dimethylamino)quinazolin-2-yl]amino}cyclohexyl)thiourea]",50 to 200 nM
14,"CN(C)c1nc(N[C@H]2CC[C@@H](NC(=S)NC3CCCC3)CC2)nc2ccccc12 [compound 162, N-cyclopentyl-N′-(cis-4-{[4-(dimethylamino)quinazolin-2-yl]amino}cyclohexyl)thiourea]",50 to 200 nM
15,COc1ccc(NC(=S)N[C@H]2CC[C@@H](Nc3nc(N(C)C)c4ccccc4n3)CC2)c(OC)c1 [compound 166],< 50 nM
16,"CCc1cccc(C(C)C)c1NC(=S)N[C@H]1CC[C@@H](Nc2nc(N(C)C)c3ccccc3n2)CC1 [compound 173, N-(cis-4-{[4-(dimethylamino)quinazolin-2-yl]amino}cyclohexyl)-N′-(2-ethyl-6-isoprophylphenyl)thiourea]",< 50 nM
17,CN(C)c1nc(N[C@H]2CC[C@@H](NC(=S)NCc3ccco3)CC2)nc2ccccc12 [compound 174],> 200 nM
18,"CCCCCCNC(=S)N[C@H]1CC[C@@H](Nc2nc(N(C)C)c3ccccc3n2)CC1 [compound 176, N-(cis-4-{[4-(dimethylamino)quinazolin-2-yl]amino}cyclohexyl)-N′-hexylthiourea]",50 to 200 nM
19,CCC[C@H]1CC[C@H](c2ccc(NC(=S)N[C@H]3CC[C@@H](Nc4nc(N(C)C)c5ccccc5n4)CC3)cc2)CC1 [compound 177],> 200 nM
20,"CC(C)CNC(=S)N[C@H]1CC[C@@H](Nc2nc(N(C)C)c3ccccc3n2)CC1 [compound 178, N-(cis-4-{[4-(dimethylamino)quinazolin-2-yl]amino}cyclohexyl)-N′-isobutylthiourea]",50 to 200 nM
21,"COc1ccc(-c2ccccc2)cc1NC(=S)N[C@H]1CC[C@@H](Nc2nc(N(C)C)c3ccccc3n2)CC1 [compound 179, N-(cis-4-{[4-(dimethylamino)quinazolin-2-yl]amino}cyclohexyl)-N′-(4-methoxybiphenyl-3-yl)thiourea]",50 to 200 nM
22,"CN(C)c1nc(N[C@H]2CC[C@@H](NC(=S)NCc3ccc4c(c3)OCO4)CC2)nc2ccccc12 [compound 180, N-(1,3-benzodioxol-5-ylmethyl)-N′-(cis-4-{[4-(dimethylamino)quinazolin-2-yl]amino}cyclohexyl)thiourea]",50 to 200 nM
23,C=C(C)CNC(=S)N[C@H]1CC[C@@H](Nc2nc(N(C)C)c3ccccc3n2)CC1 [compound 184],> 200 nM
24,CNC(=S)N[C@H]1CC[C@@H](Nc2nc(N(C)C)c3ccccc3n2)CC1 [compound 186],> 200 nM

# Next, values leading:
row,IC50,Compound
1,< 50 nM,"CN(C)c1nc(N[C@H]2CC[C@@H](NC(=O)Nc3ccc(C#N)cc3)CC2)nc2ccccc12 [compound 149, N-(4-cyanophenyl)-N′-(cis-4-{[4-(dimethylamino)quinazolin-2-yl]amino}cyclohexyl)urea]"
2,50 to 200 nM,"CCOc1ccc(NC(=O)N[C@H]2CC[C@@H](Nc3nc(N(C)C)c4ccccc4n3)CC2)cc1 [compound 150, N-(cis-4-{[4-(dimethylamino)quinazolin-2-yl]amino}cyclohexyl)-N′-(4-ethoxyphenyl)urea]"
3,> 200 nM,CC(=O)c1cccc(NC(=S)N[C@H]2CC[C@@H](Nc3nc(N(C)C)c4ccccc4n3)CC2)c1 [compound 153]
4,> 200 nM,CC(=O)c1ccc(NC(=S)N[C@H]2CC[C@@H](Nc3nc(N(C)C)c4ccccc4n3)CC2)cc1 [compound 154]
5,> 200 nM,"CN(C)c1nc(N[C@H]2CC[C@@H](NC(=S)Nc3cccc(Br)c3)CC2)nc2ccccc12 [compound 157, N-(3-bromopheny)-N′-(cis-4-{[4-(dimethylamino)quinazolin-2-yl]amino}cyclohexyl)thiourea]"
6,< 50 nM,"CN(C)c1nc(N[C@H]2CC[C@@H](NC(=S)Nc3ccc(Br)cc3)CC2)nc2ccccc12 [compound 158, N-(4-bromophenyl)-N′-(cis-4-{[4-(dimethylamino)quinazolin-2-yl]amino}cyclohexyl)thiourea]"
7,< 50 nM,"CN(C)c1nc(N[C@H]2CC[C@@H](NC(=S)Nc3ccc(C#N)cc3)CC2)nc2ccccc12 [compound 160, N-(4-cyanophenyl)-N′-(cis-4-{[4-(dimethylamino)quinazolin-2-yl]amino}cyclohexyl)thiourea]"
8,> 200 nM,CN(C)c1nc(N[C@H]2CC[C@@H](NC(=S)Nc3cccc(Cl)c3)CC2)nc2ccccc12 [compound 163]
9,50 to 200 nM,CN(C)c1nc(N[C@H]2CC[C@@H](NC(=S)Nc3ccc(Cl)cc3)CC2)nc2ccccc12 [compound 164]
10,< 50 nM,"CN(C)c1nc(N[C@H]2CC[C@@H](NC(=S)Nc3ccc(Cl)cc3Cl)CC2)nc2ccccc12 [compound 165, N-(2,4-dichlorophenyl)-N′-(cis-4-{[4-(dimethylamino)quinazolin-2-yl]amino}cyclohexyl)thiourea]"
11,> 200 nM,CN(C)c1nc(N[C@H]2CC[C@@H](NC(=S)Nc3cc(F)ccc3F)CC2)nc2ccccc12 [compound 167]
12,> 200 nM,CN(C)c1nc(N[C@H]2CC[C@@H](NC(=S)Nc3cc(Cl)ccc3Cl)CC2)nc2ccccc12 [compound 168]
13,< 50 nM,"Cc1cccc(C)c1NC(=S)N[C@H]1CC[C@@H](Nc2nc(N(C)C)c3ccccc3n2)CC1 [compound 169, N-(cis-4-{[4-(dimethylamino)quinazolin-2-yl]amino}cyclohexyl)-N′-(2,6-dimethylphenyl)thiourea]"
14,> 200 nM,CN(C)c1nc(N[C@H]2CC[C@@H](NC(=S)Nc3ccc(Cl)c(Cl)c3)CC2)nc2ccccc12 [compound 170]
15,> 200 nM,CN(C)c1nc(N[C@H]2CC[C@@H](NC(=S)Nc3c(Cl)cccc3Cl)CC2)nc2ccccc12 [compound 171]
16,> 200 nM,CCOc1ccc(NC(=S)N[C@H]2CC[C@@H](Nc3nc(N(C)C)c4ccccc4n3)CC2)cc1 [compound 172]
17,50 to 200 nM,"CN(C)c1nc(N[C@H]2CC[C@@H](NC(=S)Nc3ccc(F)cc3)CC2)nc2ccccc12 [compound 175, N-(cis-4-{[4-(dimethylamino)quinazolin-2-yl]amino}cyclohexyl)-N′-(4-fluorophenyl)thiourea]"
18,> 200 nM,Cc1cccc(NC(=S)N[C@H]2CC[C@@H](Nc3nc(N(C)C)c4ccccc4n3)CC2)c1 [compound 181]
19,50 to 200 nM,"CSc1ccc(NC(=S)N[C@H]2CC[C@@H](Nc3nc(N(C)C)c4ccccc4n3)CC2)cc1 [compound 182, N-(cis-4-{[4-(dimethylamino)quinazolin-2-yl]amino}cyclohexyl)-N′-[4-(methylthio)phenyl]thiourea]"
20,50 to 200 nM,"COc1ccc(NC(=S)N[C@H]2CC[C@@H](Nc3nc(N(C)C)c4ccccc4n3)CC2)cc1 [compound 183, N-(cis-4-{[4-(dimethylamino)quinazolin-2-yl]amino}cyclohexyl)-N′-(4-methoxyphenyl)thiourea]"
21,< 50 nM,"COc1ccccc1NC(=S)N[C@H]1CC[C@@H](Nc2nc(N(C)C)c3ccccc3n2)CC1 [compound 185, N-(cis-4-{[4-(dimethylamino)quinazolin-2-yl]amino}cyclohexyl)-N′-(2-methoxyphenyl)thiourea]"
22,< 50 nM,"CN(C)c1nc(N[C@H]2CC[C@@H](NC(=S)Nc3cccc4ccccc34)CC2)nc2ccccc12 [compound 187, N-(cis-4-{[4-(dimethylamino)quinazolin-2-yl]amino}cyclohexyl)-N′-1-naphthylthiourea]"
23,> 200 nM,CN(C)c1nc(N[C@H]2CC[C@@H](NC(=S)Nc3cccc([N+](=O)[O-])c3)CC2)nc2ccccc12 [compound 188]
24,50 to 200 nM,CN(C)c1nc(N[C@H]2CC[C@@H](NC(=S)Nc3ccc([N+](=O)[O-])cc3)CC2)nc2ccccc12 [compound 189]
